Measured values reported in patent US12391648B2, “Pyridyloxy thioester derivative and preparation method therefor, herbicidal composition, and application” (Qingdao Kingagroot Chemical Compound Co., Ltd., priority 2018, dated 2025).

Legend:
Assay in all cases: Post-emergence test experiment (Table 3, 1000 g/ha)
Format in all cases: in vivo
Settings in all cases: post-emergence spray, after 3 weeks, fresh weight inhibition
[1] = tested on: Abutilon theophrasti
Method in brief: (§1)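 Activity graded levels 0-5 by fresh-weight inhibition (level 5 above 85%, level 0 below 5%), assessed 3 weeks after treatment. Plants grown in greenhouse pots were sprayed post-emergence at 2-3 leaves using acetone/tween-80 solutions with methyl oleate synergist (1.5 L/ha).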

[2] = tested on: Leptochloa chinensis
Method in brief: as §1

[3] = tested on: Setaria viridis
Method in brief: as §1

[4] = tested on: Galium spurium
Method in brief: as §1

[5] = tested on: Digitaria sanguinalis
Method in brief: as §1

[6] = tested on: Monochoria vaginalis
Method in brief: as §1

SMILES	Activity level (growth inhibition rate) Abutilon theophrasti [1]	Activity level (growth inhibition rate) Leptochloa chinensis [2]	Activity level (growth inhibition rate) Setaria viridis [3]	Activity level (growth inhibition rate) Galium spurium [4]	Activity level (growth inhibition rate) Digitaria sanguinalis [5]	Activity level (growth inhibition rate) Monochoria Vaginalis [6]
CC(Oc1nc(F)c(Cl)c(N)c1Cl)C(=O)Sc1ccc2ccccc2c1 (stereo not drawn) [Compound 114]	5 (Level 5: the growth inhibition rate is greater than 85%)	5 (Level 5: the growth inhibition rate is greater than 85%)	5 (Level 5: the growth inhibition rate is greater than 85%)	5 (Level 5: the growth inhibition rate is greater than 85%)	5 (Level 5: the growth inhibition rate is greater than 85%)	5 (Level 5: the growth inhibition rate is greater than 85%)
CC(Oc1nc(F)c(Cl)c(N)c1Cl)C(=O)Sc1cccnc1 (stereo not drawn) [Compound 115]	5 (Level 5: the growth inhibition rate is greater than 85%)	5 (Level 5: the growth inhibition rate is greater than 85%)	5 (Level 5: the growth inhibition rate is greater than 85%)	5 (Level 5: the growth inhibition rate is greater than 85%)	5 (Level 5: the growth inhibition rate is greater than 85%)	5 (Level 5: the growth inhibition rate is greater than 85%)
CC(Oc1nc(F)c(Cl)c(N)c1Cl)C(=O)Sc1ccncc1 (stereo not drawn) [Compound 116]	5 (Level 5: the growth inhibition rate is greater than 85%)	5 (Level 5: the growth inhibition rate is greater than 85%)	5 (Level 5: the growth inhibition rate is greater than 85%)	5 (Level 5: the growth inhibition rate is greater than 85%)	5 (Level 5: the growth inhibition rate is greater than 85%)	5 (Level 5: the growth inhibition rate is greater than 85%)
Cc1cc(SC(=O)C(C)Oc2nc(F)c(Cl)c(N)c2Cl)n(C)n1 (stereo not drawn) [Compound 117]	5 (Level 5: the growth inhibition rate is greater than 85%)	5 (Level 5: the growth inhibition rate is greater than 85%)	5 (Level 5: the growth inhibition rate is greater than 85%)	5 (Level 5: the growth inhibition rate is greater than 85%)	5 (Level 5: the growth inhibition rate is greater than 85%)	5 (Level 5: the growth inhibition rate is greater than 85%)
CC(Oc1nc(F)c(Cl)c(N)c1Cl)C(=O)Sc1ccn(C)n1 (stereo not drawn) [Compound 118]	5 (Level 5: the growth inhibition rate is greater than 85%)	5 (Level 5: the growth inhibition rate is greater than 85%)	5 (Level 5: the growth inhibition rate is greater than 85%)	5 (Level 5: the growth inhibition rate is greater than 85%)	5 (Level 5: the growth inhibition rate is greater than 85%)	5 (Level 5: the growth inhibition rate is greater than 85%)
Cc1cn(C)nc1SC(=O)C(C)Oc1nc(F)c(Cl)c(N)c1Cl (stereo not drawn) [Compound 119]	5 (Level 5: the growth inhibition rate is greater than 85%)	5 (Level 5: the growth inhibition rate is greater than 85%)	5 (Level 5: the growth inhibition rate is greater than 85%)	5 (Level 5: the growth inhibition rate is greater than 85%)	5 (Level 5: the growth inhibition rate is greater than 85%)	5 (Level 5: the growth inhibition rate is greater than 85%)
CC(Oc1nc(F)c(Cl)c(N)c1Cl)C(=O)Sc1ccoc1 (stereo not drawn) [Compound 120]	5 (Level 5: the growth inhibition rate is greater than 85%)	5 (Level 5: the growth inhibition rate is greater than 85%)	5 (Level 5: the growth inhibition rate is greater than 85%)	5 (Level 5: the growth inhibition rate is greater than 85%)	5 (Level 5: the growth inhibition rate is greater than 85%)	5 (Level 5: the growth inhibition rate is greater than 85%)
CC(Oc1nc(F)c(Cl)c(N)c1Cl)C(=O)Sc1cccs1 (stereo not drawn) [Compound 121]	5 (Level 5: the growth inhibition rate is greater than 85%)	5 (Level 5: the growth inhibition rate is greater than 85%)	5 (Level 5: the growth inhibition rate is greater than 85%)	5 (Level 5: the growth inhibition rate is greater than 85%)	5 (Level 5: the growth inhibition rate is greater than 85%)	5 (Level 5: the growth inhibition rate is greater than 85%)
CC(Oc1nc(F)c(Cl)c(N)c1Cl)C(=O)Sc1cccn1C (stereo not drawn) [Compound 122]	5 (Level 5: the growth inhibition rate is greater than 85%)	5 (Level 5: the growth inhibition rate is greater than 85%)	5 (Level 5: the growth inhibition rate is greater than 85%)	5 (Level 5: the growth inhibition rate is greater than 85%)	5 (Level 5: the growth inhibition rate is greater than 85%)	5 (Level 5: the growth inhibition rate is greater than 85%)
CC(Oc1nc(F)c(Cl)c(N)c1Cl)C(=O)Sc1cn(C)cn1 (stereo not drawn) [Compound 123]	5 (Level 5: the growth inhibition rate is greater than 85%)	5 (Level 5: the growth inhibition rate is greater than 85%)	5 (Level 5: the growth inhibition rate is greater than 85%)	5 (Level 5: the growth inhibition rate is greater than 85%)	5 (Level 5: the growth inhibition rate is greater than 85%)	5 (Level 5: the growth inhibition rate is greater than 85%)
CC(Oc1nc(F)c(Cl)c(N)c1Cl)C(=O)SC1CCC1 (stereo not drawn) [Compound 124]	5 (Level 5: the growth inhibition rate is greater than 85%)	5 (Level 5: the growth inhibition rate is greater than 85%)	5 (Level 5: the growth inhibition rate is greater than 85%)	5 (Level 5: the growth inhibition rate is greater than 85%)	5 (Level 5: the growth inhibition rate is greater than 85%)	5 (Level 5: the growth inhibition rate is greater than 85%)
CC(Oc1nc(F)c(Cl)c(N)c1Cl)C(=O)SC1CCCC1 (stereo not drawn) [Compound 125]	5 (Level 5: the growth inhibition rate is greater than 85%)	5 (Level 5: the growth inhibition rate is greater than 85%)	5 (Level 5: the growth inhibition rate is greater than 85%)	5 (Level 5: the growth inhibition rate is greater than 85%)	5 (Level 5: the growth inhibition rate is greater than 85%)	5 (Level 5: the growth inhibition rate is greater than 85%)
CNc1c(Cl)c(F)nc(OC(C)C(=O)SC)c1Cl (stereo not drawn) [Compound 127]	5 (Level 5: the growth inhibition rate is greater than 85%)	5 (Level 5: the growth inhibition rate is greater than 85%)	5 (Level 5: the growth inhibition rate is greater than 85%)	5 (Level 5: the growth inhibition rate is greater than 85%)	5 (Level 5: the growth inhibition rate is greater than 85%)	5 (Level 5: the growth inhibition rate is greater than 85%)
CCNc1c(Cl)c(F)nc(OC(C)C(=O)SC)c1Cl (stereo not drawn) [Compound 128]	5 (Level 5: the growth inhibition rate is greater than 85%)	5 (Level 5: the growth inhibition rate is greater than 85%)	5 (Level 5: the growth inhibition rate is greater than 85%)	5 (Level 5: the growth inhibition rate is greater than 85%)	5 (Level 5: the growth inhibition rate is greater than 85%)	5 (Level 5: the growth inhibition rate is greater than 85%)
